Data on 16 compounds can be found in publication PMC3228903 (The FEBS journal, 2011).

Test [1] deals with T1, MAO B Ile199Ala-Tyr326Ala (Homo sapiens, UniProt P27338, I199A/Y326A).
T1 sequence (P27338 1-520 I199A/Y326A): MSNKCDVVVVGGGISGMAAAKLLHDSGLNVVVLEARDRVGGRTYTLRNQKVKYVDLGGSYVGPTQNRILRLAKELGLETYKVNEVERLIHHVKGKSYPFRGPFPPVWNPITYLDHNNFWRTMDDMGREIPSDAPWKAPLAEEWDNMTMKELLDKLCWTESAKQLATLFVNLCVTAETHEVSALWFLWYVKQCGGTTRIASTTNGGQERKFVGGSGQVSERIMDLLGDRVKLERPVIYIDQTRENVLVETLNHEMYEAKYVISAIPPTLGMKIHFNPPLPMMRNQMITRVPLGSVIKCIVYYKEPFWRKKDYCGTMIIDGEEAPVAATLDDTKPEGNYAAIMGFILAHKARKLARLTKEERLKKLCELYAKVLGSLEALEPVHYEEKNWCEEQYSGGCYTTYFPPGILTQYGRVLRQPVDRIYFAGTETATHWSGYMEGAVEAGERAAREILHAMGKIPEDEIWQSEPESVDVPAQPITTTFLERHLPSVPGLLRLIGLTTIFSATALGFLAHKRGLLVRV
The class given is biochemical.

The target of test [2] is T2, WT MAO B (Homo sapiens, UniProt P27338).
T2 sequence (P27338 1-520): T1 sequence (P27338 1-520 I199A/Y326A) with A199I, A326Y
The conditions noted are these: pH 7.5; cited from earlier work.

Test [3] concerns the target T3, MAO B Ile199Ala (Homo sapiens, UniProt P27338, I199A).
T3 sequence (P27338 1-520 I199A): T1 sequence (P27338 1-520 I199A/Y326A) with A326Y
It is filed as biochemical.

In test [4] the target is T4, Ile199Ala/Tyr326Ala MAO B (Homo sapiens, UniProt P27338, I199A/Y326A).
T4 sequence (P27338 1-520 I199A/Y326A): T1 sequence (P27338 1-520 I199A/Y326A)
Nature of the test: Steady-state substrate oxidation and pH dependence, Ile199Ala/Tyr326Ala MAO B. The class given is biochemical.

For test [5], the target named is T5, Ile199Ala MAO B (Homo sapiens, UniProt P27338, I199A).
T5 sequence (P27338 1-520 I199A): T1 sequence (P27338 1-520 I199A/Y326A) with A326Y
Put plainly: Steady-state substrate oxidation and pH dependence, Ile199Ala MAO B. It is filed as biochemical.

Test [6] deals with T2, WT MAO B. Put plainly: Inhibition of WT MAO B, Ki from initial rates of substrate oxidation. The class given is biochemical.
In test [7] the target is WT MAO A. The following applies: cited from earlier work; for Ki: WT MAO A.
Test [8] has as its target T2, WT MAO B. Put plainly: Steady-state substrate oxidation and pH dependence, WT MAO B. The conditions noted are these: pH 7.5. The class given is biochemical.
Setting [9] is: Ile199Ala-Tyr326Ala double mutant.
Where [10] appears, read: Ile199Ala-Tyr326Ala double mutant, pH 9.3.
Where [11] appears, read: Ki, Ile199Ala single mutant, pH 7.5.

Residue numbers refer to the chain shown, from its start. Where two headings read alike, the source gives them in different places.

The Ki is a dissociation constant, usually derived from enzyme kinetics or from competition with a known ligand. By Km is commonly meant the concentration of substrate that gives half-maximal velocity. The kcat is the number of substrate molecules converted per active site and unit of time at saturation.

With `CN(C)c1ccc2nc3ccc(=[N+](C)C)cc-3sc2c1` [Methylene Blue, methylene blue], in test [1] (setting [9]), the “binding / inhibition in words” value is “affinity higher than that observed with WT MAO B”.

With `C(C=Cc1ccccc1)=Cc1ccccc1` [DPBD, 1,4-Diphenyl-1,3-butadiene], the inhibition constant Ki in test [2] was 7 ± 0.2 µM; in test [1] (setting [10]), “no inhibition”; in test [3], 1 ± 0.03 µM. Further, in test [1] (setting [9]), the “binding / inhibition in words” value is “no detectable binding”.

For `C(=CCc1ccccc1)Cc1ccccc1` [DPB, 1,4-Diphenyl-2-butene], the Ki in test [2] was 34.5 ± 1.4 µM; in test [1] (setting [10]), “no inhibition”; in test [3] (setting [11]), 8.1 ± 1.6 µM. Also, the “binding / inhibition in words” value in test [1] (setting [9]) was “no detectable binding”.

In the case of `NCc1ccccc1` [Benzylamine, benzylamine], the KM result in test [4] (I199A-Y326A, pH 7.5) was “too high to measure”. In addition, the 2nd order rate in test [4] (I199A-Y326A, pH 7.5, no saturation) is listed as 2nd order rate =: 0.0106 ±0.0002 μM^−1min^−1. For the same compound, the “V/K extrapolated for fully deprotonated free enzyme, of WT activity” value is listed as ~ 5% in test [4] (double mutant) and 42% in test [5] (single mutant).

For `Cc1ccc2c(c1)c1c3n2CCNC3CCC1` (stereo not shown) [Pirlindole, pirlindole], the Ki entry was “No inhibition” in test [6] (WT MAO B, pH 7.5); “neither MAO B nor the Ile199Ala single mutant are inhibited” in test [6] (WT MAO B, pH 7.5, listed as pirlindole); 0.92 ± 0.04 µM in test [7]; 4.1 ± 0.2 µM in test [1]; “No inhibition” in test [3] (Ile199Ala single mutant, pH 7.5); “neither MAO B nor the Ile199Ala single mutant are inhibited” in test [3] (Ile199Ala single mutant, pH 7.5, listed as pirlindole).

In the case of `O=C1Nc2ccccc2C1=O` [Isatin], the Ki in test [7] was 15 µM.

In the case of `CNC1CCc2ccccc21` (stereo not shown) [methylaminoindane], in test [1], the “binding / inhibition in words” value is “Weak binding”.

`NCCCCc1ccccc1` [Phenylbutylamine, phenylbutylamine]: the Michaelis constant (Km) in test [8] turned out to be 19 ± 3 µM; in test [4] (I199A-Y326A, pH 7.5) it was 55 ± 2 µM; in test [5] (I199A, pH 7.5), 8.9 ± 0.7 µM. The kcat in test [8] was found to be 1.83 ± 0.083 s⁻¹; in test [4] (I199A-Y326A, pH 7.5) it was 2.37 ± 0.017 s⁻¹; in test [5] (I199A, pH 7.5), 2.25 ± 0.05 s⁻¹.

Regarding `NS(=O)(=O)Cc1noc2ccccc12` [zonisamide], the “binding / inhibition in words” value in test [1] (setting [9]) was “no detectable inhibition”.

For `NCCc1ccccc1` [Phenylethylamine, Phenethylamine], the “KM value higher than WT enzyme” value in test [4] (double mutant, pH 7.5) is 75 fold. In addition, the “increase in KM relative to WT enzyme” value in test [5] (single mutant, pH 7.5) turned out to be 4 fold.

`NC1CCc2ccccc21` (stereo not shown) [aminoindane]: the “binding / inhibition in words” value in test [1] is reported as “Weak binding”.

Consider `Cc1nccc2c1[nH]c1ccccc12` [Harmane, harmane], for which the inhibition constant Ki is 140 ± 47 µM in test [6], 0.58 ± 0.02 µM in test [7], 165 ± 17 µM in test [1] and 550 ± 50 µM in test [3].

Take `NCc1ccc(C(F)(F)F)cc1` [p-CF3-benzylamine]: the entries for the “V/K extrapolated for fully deprotonated free enzyme, of WT activity” value in test [4] (double mutant) and in test [5] (single mutant) were 24% and 33%, respectively.

Consider `C[C@H](NCc1ccc(OCc2cccc(F)c2)cc1)C(N)=O` [Safinamide], for which, in test [1] (double mutant relative to WT MAO B), the “weaker affinity than WT MAO B” value is given as ~ 10 fold.

Consider `CC(C)=CCC/C(C)=C/CC/C(C)=C/CO` [Farnesol, trans,trans-farnesol], for which the “binding to human MAO A in words” value in test [7] (previous work) is reported as “do not bind”. For the same compound, the Ki in test [1] came to 18 ± 3 µM; in test [3] (setting [11]) it was 2.7 ± 0.4 µM. For the same compound, in test [1] (setting [9]), the “binding / inhibition in words” value was “weaker binding”.

As to `N[C@@H]1C[C@H]1c1ccccc1` (racemic) [Tranylcypromine], the Ki in test [7] was 19 µM.
